The results in this text go back to patent publication US5635593A (priority 1995, dated 1997).

In assay [1] the target is T1, BK2 -receptor (Rattus norvegicus, UniProt P25023).
T1 construct: guinea-pig ileum (GPI), rat uterus (RU) and rabbit jugular vein (RJV); from tissue; host or cells: rat uterus
T1 sequence (P25023 1-396): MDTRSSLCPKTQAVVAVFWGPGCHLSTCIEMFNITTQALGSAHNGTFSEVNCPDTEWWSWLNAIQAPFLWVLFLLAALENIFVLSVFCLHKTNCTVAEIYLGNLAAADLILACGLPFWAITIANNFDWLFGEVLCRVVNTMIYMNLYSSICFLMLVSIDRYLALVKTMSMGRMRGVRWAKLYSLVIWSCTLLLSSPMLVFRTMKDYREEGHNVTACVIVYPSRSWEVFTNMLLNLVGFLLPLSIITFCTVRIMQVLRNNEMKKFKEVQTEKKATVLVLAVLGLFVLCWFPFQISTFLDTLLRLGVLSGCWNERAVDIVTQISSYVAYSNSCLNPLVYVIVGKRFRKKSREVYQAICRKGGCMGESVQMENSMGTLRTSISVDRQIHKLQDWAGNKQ
Description: rat uterus (RU) in vitro, antagonism of BK. As to conditions: against BK. Here is the method: Thus, in vitro studies were performed on standard assay systems, namely, guinea-pig ileum (GPI), rat uterus (RU) and rabbit jugular vein (RJV). […] The potency of each compound was assessed as a pA2 value according to the method of Arunlakshana & Schild, Br. J. Pharmacol. Chemother., 14:48-58 (1959). The pA2 can be defined as the negative logarithm of the molar concentration of the antagonist in the presence of which the potency of the agonist is reduced two-fold, i.e., twice the amount of agonist is required to produce a given response in the presence of, than in the absence of, the antagonist. A high potency of antagonism is indicated by a high pA2 value. i.e., a low concentration of antagonist is effective.
The percentage recovery (% Rec) was also determined for compounds with respect to each assay.
With respect to duration of activity, it is noted that after exposure to the highest concentration of antagonist, each tissue was washed extensively and then assessed for recovery from the antagonist effect.
Potency in the rat uterus assay was assessed as described above and pA2 values determined.

In assay [2] the target is T2, BK1 receptor (Oryctolagus cuniculus, UniProt P48748).
T2 sequence (P48748 1-352): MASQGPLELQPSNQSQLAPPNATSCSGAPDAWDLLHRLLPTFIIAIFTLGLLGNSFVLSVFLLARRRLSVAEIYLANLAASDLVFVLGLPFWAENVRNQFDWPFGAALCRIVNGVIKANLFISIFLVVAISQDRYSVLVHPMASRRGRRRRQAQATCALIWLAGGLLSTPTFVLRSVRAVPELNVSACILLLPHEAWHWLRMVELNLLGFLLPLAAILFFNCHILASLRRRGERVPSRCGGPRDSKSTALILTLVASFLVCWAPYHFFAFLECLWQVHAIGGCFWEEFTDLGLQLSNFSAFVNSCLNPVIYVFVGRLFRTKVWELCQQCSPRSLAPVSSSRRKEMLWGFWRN
Description: rabbit aorta in vitro, reversal of des-Arg^9 -BK contraction. Also on record: on rabbit aorta (BK1 -receptor) in vitro; from tissue; host or cells: rabbit aorta. The settings on record: negative log of molar concentration causing 50% reversal of des-Arg^9 -BK (10^-7 M) contraction. Here is the method:
Each antagonist was then added, in a cumulative fashion, on top of the contraction and the negative log of the molar concentration of the antagonist causing a 50% reversal (IC50) of the […] measured.

The target in assay [3] is T2, BK1 receptor. As to the kind of experiment: blood pressure response to BK1 agonist in LPS-pretreated rabbits. Type of assay: in vivo, rabbit. Also on record: from tissue; host or cells: whole animal (rabbit, LPS-pretreated), blood pressure response; key to observed antagonist activity BK1, 1 / observed antagonist activity BK1, 3 / observed antagonist activity BK1, 10: +: complete blockade of the blood pressure response to the appropriate agonist; ±: partial blockade; -: no observable effect at the dose indicated. As to conditions: rabbits given LPS (10 μg) 20 hours before; for observed antagonist activity BK1, 1: 1 μg kg^-1 min^-1; for observed antagonist activity BK1, 3: 3 μg kg^-1 min^-1; for observed antagonist activity BK1, 10: 10 μg kg^-1 min^-1. The text has this: (§1) That heterodimeric constructs block the activities attributable to two different receptor populations simultaneously when administered to an intact animal has been known using a standard assay of BK2 and BK1 receptor activity (see, deBlois, Bouthillier, and Marceau, Brit. J. Pharm., 103, 1057-1066, 1991). In normal rabbits, no changes in systemic arterial blood pressure can be detected in response to challenges with BK1 receptor agonists. There is, however, a predictable and reproducible response to BK2 agonists constituatively present. After stimulation with LPS BK1 receptor activity will develop over time such that profound responses to doses of BK1 agonists that were previously inconsequential in nature are observed after a 3-4 hour period. Responses to BK2 agonists are unchanged in these animals. At this point, one can test directly the ability to block both BK1 and BK2 mediated reductions in systemic blood pressure simultaneously with a heterodimeric antagonist.
(§2) FIGS. 8a, b and c comprise actual blood pressure traces from a series of experiments designed to illustrate the ability of a representative heterodimer (CP-0364) to block both BK1 - and BK2 - mediated hypotensive responses simultaneously.
(§3) The expected antagonist activity is based on the data summarized in Tables K and L. The in vivo experimental data reported are qualitative measurements of antagonist activity at three different doses (1, 3 and 10 μg kg^-1 min^-1) in rabbits given a sub-lethal dose of LPS (10 μg), 20 hours before initiation of the experiment.

Assay [4] concerns the target T3, BK2 receptor (Oryctolagus cuniculus, UniProt Q28642).
T3 construct: from tissue; host or cells: whole animal (rabbit, LPS-pretreated), blood pressure response
T3 sequence (Q28642 1-367): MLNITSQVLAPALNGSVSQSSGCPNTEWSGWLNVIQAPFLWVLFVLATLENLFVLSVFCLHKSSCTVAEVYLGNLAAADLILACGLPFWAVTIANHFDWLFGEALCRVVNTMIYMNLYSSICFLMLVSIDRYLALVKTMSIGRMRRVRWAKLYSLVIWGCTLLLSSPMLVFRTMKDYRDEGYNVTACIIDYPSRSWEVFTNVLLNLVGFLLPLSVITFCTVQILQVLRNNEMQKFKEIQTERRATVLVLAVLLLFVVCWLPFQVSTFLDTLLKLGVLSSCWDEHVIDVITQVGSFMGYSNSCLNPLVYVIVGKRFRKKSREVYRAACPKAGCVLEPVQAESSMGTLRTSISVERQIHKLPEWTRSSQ
As to the kind of experiment: blood pressure response to BK2 agonist in LPS-pretreated rabbits. In kind it is in vivo, rabbit. As to conditions: rabbits given LPS (10 μg) 20 hours before; for observed antagonist activity BK2, 1: 1 μg kg^-1 min^-1. Also on record: key to observed antagonist activity BK2, 1 / observed antagonist activity BK2, 3 / observed antagonist activity BK2, 10: +: complete blockade of the blood pressure response to the appropriate agonist; ±: partial blockade; -: no observable effect at the dose indicated.
Excerpt: as §1, §2, §3

SMILES strings stand for the structures. Square brackets hold non-standard residues; d marks the D form. Peptide text beside a SMILES is read from it. Oic = O=C(O)[C@@H]1C[C@@H]2CCCC[C@@H]2N1; Hyp = O=C(O)[C@@H]1C[C@@H](O)CN1; dTic = O=C(O)[C@H]1Cc2ccccc2CN1; 2Thi = N[C@@H](Cc1cccs1)C(=O)O

`CC(C)C[C@H](NC(=O)[C@@H]1CCCN1C(=O)[C@H](CO)NC(=O)[C@H](Cc1ccccc1)NC(=O)CNC(=O)[C@@H]1C[C@@H](O)CN1C(=O)[C@@H]1CCCN1C(=O)[C@H](CCCCNC(=O)CCCCCN1C(=O)CC(SC[C@H](NC(=O)[C@H](Cc2ccccc2)NC(=O)CNC(=O)[C@@H]2C[C@@H](O)CN2C(=O)[C@@H]2CCCN2C(=O)[C@H](CCCNC(=N)N)NC(=O)[C@H](N)CCCNC(=N)N)C(=O)N[C@H](Cc2ccccc2)C(=O)N[C@@H](CC(C)C)C(=O)N[C@@H](CCCNC(=N)N)C(=O)O)C1=O)NC(=O)[C@H](N)CCCNC(=N)N)C(=O)O` (stereo partly shown) [CP-0389] (HELM PEPTIDE1{[dR].R.P.[Hyp].G.F.C.[dF].L.R}|PEPTIDE2{[dR].K.P.[Hyp].G.F.S.P.L}|CHEM1{[O=C1CC([*:1])C(=O)N1CCCCCC(=O)[*:2]]}$PEPTIDE1,CHEM1,7:R3-1:R1|PEPTIDE2,CHEM1,2:R3-1:R2$$$V2.0; N-terminus and C-terminus assumed; bridges inferred): the “pA2 rat uterus (BK2)” value in assay [1] was determined as 7.4 ± 0.1. Besides, the “BK1 rabbit aorta IC50” value in assay [2] was determined as 6.5 ± 0.1.
Consider `N=C(N)NCCC[C@@H](N)C(=O)N[C@@H](CCCNC(=N)N)C(=O)N1CCC[C@H]1C(=O)N1C[C@H](O)C[C@H]1C(=O)NCC(=O)N[C@@H](Cc1ccccc1)C(=O)N[C@@H](CO)C(=O)N1Cc2ccccc2C[C@@H]1C(=O)N1[C@H](C(=O)O)C[C@@H]2CCCC[C@@H]21` [CP-0267, D R--R--P--J--G--F--S--D Tic--Oic] (HELM PEPTIDE1{[dR].R.P.[Hyp].G.F.S.[O=C([C@H]1Cc2ccccc2CN1[*:1])[*:2]].[O=C(O)[C@@H]1C[C@@H]2CCCC[C@@H]2N1[*:1]]}$$$$V2.0; N-terminus and C-terminus assumed), for which, in assay [1], the “pA2 rat uterus (BK2)” value is on record as 5.7 ± 0.1. Besides, in assay [2], the “BK1 rabbit aorta IC50” value is listed as 7.5 ± 0.2. In assay [3], the “observed antagonist activity BK1, 1” value was “-”; the “observed antagonist activity BK1, 3” value is listed as “-”; the “observed antagonist activity BK1, 10” value is listed as “+”. Besides, in assay [4], the “observed antagonist activity BK2, 1” value is recorded as “-”. For the same molecule, the “observed antagonist activity BK2, 3” value in assay [4] (3 μg kg^-1 min^-1) is given as “-”.
On to `N=C(N)NCCC[C@@H](N)C(=O)N[C@@H](CCCNC(=N)N)C(=O)N1CCC[C@H]1C(=O)N1C[C@H](O)C[C@H]1C(=O)NCC(=O)N[C@@H](Cc1cccs1)C(=O)N[C@@H](CO)C(=O)N1Cc2ccccc2C[C@@H]1C(=O)N1[C@H](C(=O)O)C[C@@H]2CCCC[C@@H]21` [CP-0345, D R--R--P--J--G--Thi--S--D Tic--Oic] (H-[dR]RP[Hyp]G[2Thi]S[dTic][Oic]-OH; N-terminus and C-terminus assumed), for which the “pA2 rat uterus (BK2)” value in assay [1] stood at 7.6 ± 0.4. In assay [2], the “BK1 rabbit aorta IC50” value came to 7.1 ± 0.1. Also, in assay [3], the “observed antagonist activity BK1, 1” value is “-”; the “observed antagonist activity BK1, 3” value is reported as “+”; the “observed antagonist activity BK1, 10” value was “+”. Moreover, the “observed antagonist activity BK2, 1” value in assay [4] was “-”. Also, the “observed antagonist activity BK2, 10” value in assay [4] (10 μg kg^-1 min^-1) is reported as “+”.
As to `CC(C)C[C@H](NC(=O)[C@@H]1CCCN1C(=O)[C@H](CO)NC(=O)[C@H](Cc1ccccc1)NC(=O)CNC(=O)[C@@H]1C[C@@H](O)CN1C(=O)[C@@H]1CCCN1C(=O)[C@H](CCCCN)NC(=O)[C@H](N)CCCNC(=N)N)C(=O)O` [CP-0388, D R--K--P--J--G--F--S--P--L] (HELM PEPTIDE1{[dR].K.P.[Hyp].G.F.S.P.L}$$$$V2.0; N-terminus and C-terminus assumed), the “BK1 rabbit aorta IC50” value in assay [2] was 6.5 ± 0.1.
In the case of `CC(C)C[C@H](NC(=O)[C@@H](Cc1ccccc1)NC(=O)[C@H](CSC1CC(=O)N(CCCCCCN2C(=O)CC(SC[C@H](NC(=O)[C@H](Cc3ccccc3)NC(=O)CNC(=O)[C@@H]3C[C@@H](O)CN3C(=O)[C@@H]3CCCN3C(=O)[C@H](CCCNC(=N)N)NC(=O)[C@H](N)CCCNC(=N)N)C(=O)N[C@H](Cc3ccccc3)C(=O)N[C@@H](CC(C)C)C(=O)N[C@@H](CCCNC(=N)N)C(=O)O)C2=O)C1=O)NC(=O)[C@H](Cc1ccccc1)NC(=O)CNC(=O)[C@@H]1C[C@@H](O)CN1C(=O)[C@@H]1CCCN1C(=O)[C@H](CCCNC(=N)N)NC(=O)[C@H](N)CCCNC(=N)N)C(=O)O` (stereo partly shown) [CP-0273] (HELM PEPTIDE1{[dR].R.P.[Hyp].G.F.C.[dF].L.R}|PEPTIDE2{[dR].R.P.[Hyp].G.F.C.[dF].L}|CHEM1{[O=C1CC([*:1])C(=O)N1CCCCCCN1C(=O)CC([*:2])C1=O]}$PEPTIDE1,CHEM1,7:R3-1:R1|PEPTIDE2,CHEM1,7:R3-1:R2$$$V2.0; N-terminus and C-terminus assumed), the Kb in assay [1] (read-out: pA2 rat uterus (BK2) (converted)) is 6.31 nM. For the same molecule, the IC50 (as a rule, the point on the concentration scale where inhibition reaches its midpoint) in assay [2] was 2000 nM.
In the case of `CC(C)C[C@H](NC(=O)[C@@H](Cc1ccccc1)NC(=O)[C@H](CS)NC(=O)[C@H](Cc1ccccc1)NC(=O)CNC(=O)[C@@H]1C[C@@H](O)CN1C(=O)[C@@H]1CCCN1C(=O)[C@H](CCCNC(=N)N)NC(=O)[C@H](N)CCCNC(=N)N)C(=O)O` [CP-0254, D R--R--P--J--G--F--C--D F--L] (HELM PEPTIDE1{[dR].R.P.[Hyp].G.F.C.[dF].L}$$$$V2.0; N-terminus and C-terminus assumed), the “BK1 rabbit aorta IC50” value in assay [2] is on record as 6.4 ± 0.1.
For the molecule `CC(C)C[C@H](NC(=O)[C@@H]1CCCN1C(=O)[C@H](CO)NC(=O)[C@H](Cc1ccccc1)NC(=O)CNC(=O)[C@@H]1C[C@@H](O)CN1C(=O)[C@@H]1CCCN1C(=O)[C@H](CS)NC(=O)[C@@H](N)CCCCN)C(=O)O` [CP-0374, K--C--P--J--G--F--S--P--L] (HELM PEPTIDE1{K.C.P.[Hyp].G.F.S.P.L}$$$$V2.0; N-terminus and C-terminus assumed), the “pA2 rat uterus (BK2)” value in assay [1] is given as “no measurable activity”. Besides, the “BK1 rabbit aorta IC50” value in assay [2] is 6.5 ± 0.3.
